One data set in a line: Pharmacokinetics in rats. The class given is in vivo. On the procedure:
The pharmacokinetics of ABT-199 and representative Compounds of the Disclosure were evaluated in rats at an IV dose of 2 mg/kg and an oral dose of 20 mg/kg.

The next data set has as its system RS4;11 cells. The experiment in a line: RS4;11 cell viability, CCK-8 assay. The class given is cell-based. Particulars: Homo sapiens, RS4-11, 96 h, CCK-8, 4 days, read-out: RS4, 11 IC50 (Bcl-2 dependent). The method, boiled down:
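RS4;11 cells seeded at 10000 cells/well in medium with 10% FBS, cultured overnight, then exposed to serially diluted compound for 4 days at 37° C., 5% CO2. Viability by CCK-8 absorbance at 450 nm, normalized to vehicle; IC50 by nonlinear regression.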
On the technique in general: Tetrazolium dyes change colour on reduction, which living cells bring about.

The next data set addresses Mcl-1 (Homo sapiens (Human), UniProt Q07820). The experiment in a line: Fluorescence polarization competitive binding assay, Mcl-1. The note with it: FP competition, 20 nM Mcl-1, 2 nM Flu-BID probe; read-out: Inhibitory activity IC50 Mcl-1. (In general: In fluorescence polarisation assays a small probe gives low polarisation when free and higher when bound to something large.)

Data set [1] concerns RS4;11 leukemia xenograft. Nature of the data set: RS4;11 leukemia xenograft model. The class given is in vivo. Particulars: nude mice, oral gavage. As for the experimental part:
The antitumor activity of Cpd. No. 6 (compound 6) was also studied in the RS4;11 leukemia xenograft model. Human RS4;11 tumor cells were injected into nude mice and treatment started on day 11 when the tumor size reached approximately 100 mm^3. Cpd. No. 6 was administered via oral gavage at indicated doses and schedules. Cpd.

Where two headings read alike, the source gives them in different places.

Sequence of Mcl-1 (Q07820 whole entry): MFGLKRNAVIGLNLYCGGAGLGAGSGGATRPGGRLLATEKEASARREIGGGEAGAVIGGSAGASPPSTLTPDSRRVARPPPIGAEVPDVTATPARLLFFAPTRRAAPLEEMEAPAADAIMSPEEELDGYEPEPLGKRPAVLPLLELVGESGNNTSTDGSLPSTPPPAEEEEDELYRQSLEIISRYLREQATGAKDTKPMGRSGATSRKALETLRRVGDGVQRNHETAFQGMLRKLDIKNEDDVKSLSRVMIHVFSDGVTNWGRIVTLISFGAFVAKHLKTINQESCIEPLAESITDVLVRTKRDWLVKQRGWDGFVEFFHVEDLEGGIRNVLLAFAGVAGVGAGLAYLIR
Description for Mcl-1: Fluorescence polarization values were measured using the Infinite M-1000 plate reader (Tecan U.S., Research Triangle Park, N.C.) in Microfluor 1 96-well, black, round-bottom plates (Thermo Scientific). […] Plates were mixed and incubated at room temperature for 1 hour with gentle shaking to assure equilibrium. […] Equilibrium dissociation constants (Kd) were then calculated by fitting the sigmoidal dose-dependent FP increases as a function of protein concentrations using Graphpad Prism 5.0 software (Graphpad Software, San Diego, Calif.).
Mixtures of 5 μl of the tested inhibitors in DMSO and 120 μl of pre-incubated protein/probe complexes in the assay buffer were added into assay plates and incubated at room temperature for 2 hours with gentle shaking. […] FP values were measured as described above. IC50 values were determined by nonlinear regression fitting of the competition curves.

For `O=C(NS(=O)(=O)c1ccc(NC[C@H]2COCCO2)c([N+](=O)[O-])c1)c1ccc(N2CCN(CC3=C(c4ccc(Cl)cc4)CC4(CCC4)CC3)CC2)cc1Oc1cnc2[nH]ccc2c1` [Cpd. No. 6, (S)-N-((4-(((1,4-dioxan-2-yl)methyl)amino)-3-nitrophenyl)sulfonyl)-2-((1H-pyrrolo[2,3-b]pyridin-5-yl)oxy)-4-(4-((6-(4-chlorophenyl)spiro[3.5]non-6-en-7-yl)methyl)piperazin-1-yl)benzamide], the “AUC0-∞ IV” value in “Pharmacokinetics in rats” (IV 2 mg/kg) was determined as 2915 n · gh/mL. In “Pharmacokinetics in rats” (oral 20 mg/kg), the “AUC0-∞ PO” value is on record as 13475 n · gh/mL. Further, in “Pharmacokinetics in rats” (oral 20 mg/kg vs IV 2 mg/kg), the “F(AUC0-t)” value is reported as 46.2%. Besides, in the data set “Pharmacokinetics in rats” (rat, in vivo, IV 2 mg/kg), the MRT inf (commonly a mean duration of stay, worked out from the concentration-time curve) came out at 2.09 h. In addition, the AUC(0-t) in “Pharmacokinetics in rats” (rat, in vivo, IV 2 mg/kg, read-out: AUC0-t IV) was 2.9 µg·h/mL; in “Pharmacokinetics in rats” (rat, in vivo, oral 20 mg/kg, read-out: AUC0-t PO), 13.4 µg·h/mL. The clearance in the data set “Pharmacokinetics in rats” (rat, in vivo, IV 2 mg/kg, read-out: CL (iv) (converted)) is 0.695 L/h/kg. Besides, the highest concentration (Cmax) (in general, the maximum level reached in the sampled fluid or tissue) in “Pharmacokinetics in rats” (rat, in vivo, IV 2 mg/kg, read-out: Cmax IV) stood at 4.17 µg/mL; in “Pharmacokinetics in rats” (rat, in vivo, oral 20 mg/kg, read-out: Cmax PO) it was 2.62 µg/mL. The time to peak (Tmax) (in general, the time from dosing to the highest level) in the data set “Pharmacokinetics in rats” (rat, in vivo, IV 2 mg/kg, read-out: Tmax IV) was determined as 0.083 h; in the data set “Pharmacokinetics in rats” (rat, in vivo, oral 20 mg/kg, read-out: Tmax PO), 2.67 h. Also, the Vd in the data set “Pharmacokinetics in rats” (rat, in vivo, IV 2 mg/kg, read-out: Vss (iv)) came out at 1.44 L/kg. For the same molecule, the half-life was 4.39 h in the data set “Pharmacokinetics in rats” (rat, in vivo, IV 2 mg/kg, read-out: t1/2 IV (converted)) and 3.12 h in the data set “Pharmacokinetics in rats” (rat, in vivo, oral 20 mg/kg, read-out: t1/2 PO (converted)). Also, the results for the IC50 in the data set with RS4;11 cells and on Mcl-1 were 5.5 nM and greater than 5000 nM, respectively. The mouse weight entry in data set [1] (FIG. 4) is “does not cause weight loss in mice”. In addition, in data set [1] (treatment from day 11, FIG. 3), the “antitumor activity (tumor growth)” value is “inhibits tumor growth”.

The record behind these values is patent publication US10221174B2, “N-(phenylsulfonyl)benzamides and related compounds as BCL-2 inhibitors” (THE REGENTS OF THE UNIVERSITY OF MICHIGAN, priority 2016, dated 2019).
